Source: patent US10399949B2, “NK1 receptor antagonist” (KISSEI PHARMACEUTICAL CO., LTD., priority 2015, dated 2019)

Key:
human CYP3A4 = molecular target: T1, human CYP3A4 (Homo sapiens, UniProt P08684); test: Inhibitory effect on CYP3A4 (Luciferin-IPA); format: in vitro ADME; conditions: test compound 10 μM, 30-minutes pre-incubation, Luciferin-IPA 3 μM
T1 construct: purchased BD Biosciences
Procedure: Inhibitory Effect on CYP3A4
The dimethyl sulfoxide (DMSO) solution of the test compound with a concentration 1000 times higher than the evaluation concentration was prepared, and a reaction solution was prepared by diluting the solution. Enzyme reaction was performed by incubating in a potassium phosphate buffer solution (pH 7.4) containing 1 μM to 10 μM test compound, 3.2 mM magnesium chloride, 0.2 pmol human CYP3A4 (BD Biosciences), 0.5 mM reduced nicotinamide adenine dinucleotide phosphate (NADPH) and 3 μM Luciferin-IPA (Promega) at 37° C. for 10 minutes. The volume of the reaction solution was 50 μL/well. The 30-minutes pre-incubation group was incubated at 37° C. for 30 minutes before adding the substrate, the Luciferin-IPA solution (12.5 μL/well). At the end of the enzyme reaction, 50 μL/well of a Luciferin detection reagent (Promega) was added to the wells, and the plate was left at room temperature for 20 minutes. Then, the emission intensities were measured with Infinite M1000 (TECAN), and the enzyme activities (%) relative to the value of the group to which the test compound was not added. As a comparative example, aprepitant, which is an NK1 receptor antagonist, was tested in the same manner.
Test was measured by the above test method, and the results are shown in Table 9 when the concentration of the test compound was 10 μM. In the table, Ex. No. means the Example number, and Pre-incubation (30 min) (%) means the enzyme activities (%) of the 30-minutes pre-incubation groups using the test compounds.

human NK1 receptor [1] = molecular target: T2, human NK1 receptor (Homo sapiens, UniProt P25103); test: Affinity for human NK1 receptor (125I-substance P receptor binding test, membrane fraction); conditions: membrane fraction of human NK1 receptor-expressing 293T cells, room temperature 60 minutes, read-out: pIC50 (inverse logarithm of the concentration required for 50% inhibition of 125I-substance P binding) (converted)
T2 construct: expressed in transfected cells; host or cells: 293T cells (RIKEN), transient transfection with pcDNA3.1(-) plasmid
T2 sequence (P25103 whole entry): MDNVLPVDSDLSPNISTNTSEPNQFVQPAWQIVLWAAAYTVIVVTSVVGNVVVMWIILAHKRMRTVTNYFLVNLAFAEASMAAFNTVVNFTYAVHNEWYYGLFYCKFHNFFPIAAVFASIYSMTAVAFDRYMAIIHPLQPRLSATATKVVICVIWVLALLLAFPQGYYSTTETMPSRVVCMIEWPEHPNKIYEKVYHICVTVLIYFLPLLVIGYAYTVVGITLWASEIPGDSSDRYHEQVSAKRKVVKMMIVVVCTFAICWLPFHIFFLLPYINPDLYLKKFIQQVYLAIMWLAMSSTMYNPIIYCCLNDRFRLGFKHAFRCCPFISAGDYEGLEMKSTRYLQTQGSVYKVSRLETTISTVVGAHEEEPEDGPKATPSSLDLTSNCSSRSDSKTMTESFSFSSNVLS
Procedure: Affinity for Human NK1 Receptor
(3) Measurement of Binding Affinity to Human NK1 Receptor
(3-1) Preparation of Membrane Fraction from Human NK1 Receptor-Expressing Cells
Human NK1 receptor-expressing cells were prepared in a 175 cm^2 culture flask (Nippon Becton Dickinson). The formation of a complex of the human NK1 receptor expression plasmid and Lipofectamine 2000 was performed by calculating the culture area ratio and increasing the scale of the method described in the above 2-4 by the ratio. The human NK1 receptor-expressing cells were collected in a buffer solution for the membrane fraction preparation (50 mM Tris (Wako Pure Chemical), 120 mM sodium chloride (Wako Pure Chemical Industries), 5 mM potassium chloride (Wako Pure Chemical Industries), 1 mM ethylenediaminetetraacetic acid (Sigma), 0.002 mg/mL chymostatin (Peptide Institute), 0.04 mg/bacitracin (Wako Pure Chemical Industries), 0.005 mg/mL phosphoramidon (Peptide Institute) and 0.5 mM phenylmethylsulfonyl fluoride (Wako Pure Chemical Industries), pH7.4) and centrifuged at 1,880 g for 10 minutes, and the cell sediment was suspended in the buffer solution for the membrane fraction preparation. After freezing and thawing the cells once, the cells were homogenized using a Dounce-type homogenizer (cooled on ice, 1000 rpm, 20 times). The homogenized cell suspension was centrifuged at 20,000 rpm for 10 minutes, and the supernatant was removed to obtain cell sediment. The cell sediment was suspended again in the buffer solution for the membrane fraction preparation and homogenized using a Dounce-type homogenizer (cooled on ice, 1000 rpm, 30 times). The cell suspension was centrifuged at 20,000 rpm for 10 minutes, and the supernatant was removed to obtain cell sediment. The same homogenization and centrifugation were repeated again, and final cell sediment was obtained. The final cell sediment was suspended in a buffer solution for the receptor binding test (50 mM Tris (Wako Pure Chemical Industries), 3 mM manganese chloride (Wako Pure Chemical Industries), 0.002 mg/mL chymostatin (Peptide Institute), 0.04 mg/bacitracin (Wako Pure Chemical Industries) and 0.02% bovine serum albumin (Sigma), pH 7.4), and the protein concentration was measured using BCA Protein Assay Kit (Pierce).
(3-2) Receptor Binding Test
The buffer solution for the receptor binding test was dispensed to the wells of a 96-well assay plate (Greiner) at 22.5 μL/well. DMSO solutions of a test compound, which were prepared at an 80-time higher concentration using 100% dimethyl sulfoxide (DMSO), were added to the wells at 2.5 μL/well (final concentrations of 1 nM to 100 nM), and the solutions were mixed. As a radiolabeled ligand, ^125I-substance P (Substance P, [^125I]Tyr^8-, PerkinElmer) was used. ^125I-substance P was diluted with the buffer solution for the receptor binding test to a concentration resulting in […] and added to the 96-well assay plate, and the solutions were mixed. The membrane fraction prepared from the human NK1 receptor-expressing cells was diluted with the buffer solution for the receptor binding test to a concentration resulting in 8 to 10 μg/well, suspended until the suspension became in such a homogenous state that the suspension could flow through a 27G injection needle smoothly and then added to the 96-well assay plate at 150 μL/well. Then, the plate was incubated at room temperature for 60 minutes while shaking the plate. […]

human NK1 receptor [2] = molecular target: T2, human NK1 receptor; test: Inhibitory effect on human NK1 receptor (substance P-induced increase in intracellular calcium concentration); format: cell-based; conditions: HEK-293T; substance P 0.1 μM; compound 1 μM; human NK1 receptor-expressing 293T cells; vehicle = 100%; read-out: SPRR (%) (Substance P-Response Remaining, intracellular calcium concentration)
Procedure: Inhibitory Effect on Human NK1 Receptor
(1) Preparation of Human NK1 Receptor-Expressing Cells
Human NK1 receptor-expressing cells were prepared by the same methods as those described in 2-3 and 2-4 of Test Example 1.
(2) Study on Inhibitory Effect on Increase in Intracellular Calcium Concentration
The human NK1 receptor-expressing cells were washed with 300 μL/well of a washing solution (20 mM HEPES/Hanks Balanced Salt Solution (HBSS) pH7.3). A fluorescent calcium indicator (Fluo-4 Direct Calcium Assay Kit, Life Technologies, containing 0.42 mM probenecid and 0.1% bovine serum albumin, prepared according to the protocol of the product) was added to the wells at 150 μL/well, and the plate was incubated at 37° C. for 30 minutes in an incubator. Then, DMSO solutions of a test compound, which were prepared at an 80-time higher concentration using 100% dimethyl sulfoxide (DMSO), were added to the wells at 2.5 μL/well (final concentrations of 0.1, 1 and 10 μM), and the solutions were mixed. Then, the plate was further incubated at 37° C. for 30 minutes in an incubator. After 30 minutes, the intracellular calcium concentrations were measured immediately.
The intracellular calcium concentrations were each measured as a fluorescent signal using FDSS® 7000 (Hamamatsu Photonics). A substance P (Peptide Institute, Inc.) solution which was prepared at 0.4 μM or 4 μM using an assay buffer (20 mM HEPES/Hanks Balanced Salt Solution (HBSS) pH 7.3 containing 0.1% bovine serum albumin) was added automatically to each well at 50 μL/well (final concentration of 0.1 or 1 μM) 10 seconds after starting reading, and the fluorescent signal was measured up to 120 seconds.
The intracellular calcium concentration (%) of the cells to which a test compound was added was calculated by the equation below, where the fluorescent signal of the group to which the vehicle (DMSO) was added was regarded as 100%, and the fluorescent signal before the addition of substance P was regarded as 0%. Intracellular calcium concentration (%)=(Fluorescent signal of test compound addition group)/(Fluorescent signal of vehicle addition group)×100
The intracellular calcium concentration (%) calculated was regarded as the remaining agonist activity of substance P (Substance P-Response Remaining: SPRR). In the table, Ex. No. means the Example number. SPRR (%) means the value obtained when the concentration of substance P was 0.1 μM and the concentration of the compound was 1 μM.

T1 sequence (P08684 whole entry): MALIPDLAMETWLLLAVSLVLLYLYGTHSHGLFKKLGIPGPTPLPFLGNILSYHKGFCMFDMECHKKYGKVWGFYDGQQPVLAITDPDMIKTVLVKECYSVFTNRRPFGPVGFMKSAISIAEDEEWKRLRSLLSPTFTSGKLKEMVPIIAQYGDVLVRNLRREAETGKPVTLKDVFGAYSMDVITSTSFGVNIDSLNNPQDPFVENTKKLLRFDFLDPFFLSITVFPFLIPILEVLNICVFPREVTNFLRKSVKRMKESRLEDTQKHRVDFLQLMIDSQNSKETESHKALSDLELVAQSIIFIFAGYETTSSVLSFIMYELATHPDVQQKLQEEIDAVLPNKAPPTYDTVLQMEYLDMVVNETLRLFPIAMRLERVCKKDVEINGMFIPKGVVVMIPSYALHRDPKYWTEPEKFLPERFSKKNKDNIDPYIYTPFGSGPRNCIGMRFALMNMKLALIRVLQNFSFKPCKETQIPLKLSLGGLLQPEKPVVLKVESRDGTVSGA

Row | SMILES | Preincubation (30 min) (%) (enzyme activities relative to group without test compound) (human CYP3A4) | IC50 (human NK1 receptor [1]) | remaining activity at 1 µM (human NK1 receptor [2])
1 | C[C@@H](O[C@H]1OCCN(Cc2n[nH]c(=O)[nH]2)[C@H]1c1ccc(F)cc1)c1cc(C(F)(F)F)cc(C(F)(F)F)c1 [Aprepitant, aprepitant, reference compound] | 1.3% |  | 
2 | Cc1cc(F)ccc1[C@H]1CN(C2CCC(CC(=O)O)CC2)CCN1C(=O)N(C)[C@H](C)c1cc(C(F)(F)F)cc(C(F)(F)F)c1 (stereo partly drawn) [Example 1, {4-[(S)-4-{[(R)-1-(3,5-Bistrifluoromethylphenyl)ethyl]methylcarbamoyl}-3-(4-fluoro-2-methylphenyl)piperazin-1-yl]cyclohexyl}acetic acid] |  | 2.24 nM | 15%
3 | Cc1cc(F)ccc1[C@H]1CN(C(=O)[C@H]2CC[C@@H](CC(=O)O)CC2)CCN1C(=O)N(C)[C@H](C)c1cc(C(F)(F)F)cc(C(F)(F)F)c1 [Example 2, cis-{4-[(S)-4-{[(R)-1-(3,5-Bistrifluoromethylphenyl)ethyl]methylcarbamoyl}-3-(4-fluoro-2-methylphenyl)piperazine-1-carbonyl]cyclohexyl}acetic acid] |  | 1.38 nM | 25%
4 | Cc1cc(F)ccc1[C@H]1CN(C(=O)[C@H]2CC[C@H](CC(=O)O)CC2)CCN1C(=O)N(C)[C@H](C)c1cc(C(F)(F)F)cc(C(F)(F)F)c1 [Example 3, trans-{4-[(S)-4-{[(R)-1-(3,5-Bistrifluoromethylphenyl)ethyl]methylcarbamoyl}-3-(4-fluoro-2-methylphenyl)piperazine-1-carbonyl]cyclohexyl}acetic acid] |  | 1.41 nM | 50%
5 | Cc1cc(F)ccc1[C@H]1CN(C2CCC(C(=O)O)CC2)CCN1C(=O)N(C)[C@H](C)c1cc(C(F)(F)F)cc(C(F)(F)F)c1 (stereo partly drawn) [Example 6, 4-[(S)-4-{[(R)-1-(3,5-Bistrifluoromethylphenyl)ethyl]methylcarbamoyl}-3-(4-fluoro-2-methylphenyl)piperazin-1-yl]cyclohexanecarboxylic acid] |  | 1.7 nM | 14%
6 | Cc1cc(F)ccc1[C@H]1CN(C[C@H]2CC[C@@H](C(=O)O)CC2)CCN1C(=O)N(C)[C@H](C)c1cc(C(F)(F)F)cc(C(F)(F)F)c1 [Example 7, cis-4-[(S)-4-{[(R)-1-(3,5-Bistrifluoromethylphenyl)ethyl]methylcarbamoyl}-3-(4-fluoro-2-methylphenyl)piperazin-1-ylmethyl]cyclohexanecarboxylic acid] |  | 2.04 nM | 6.6%
7 | Cc1cc(F)ccc1[C@H]1CN(C[C@H]2CC[C@H](C(=O)O)CC2)CCN1C(=O)N(C)[C@H](C)c1cc(C(F)(F)F)cc(C(F)(F)F)c1 [Example 8, trans-4-[(S)-4-{[(R)-1-(3,5-Bistrifluoromethylphenyl)ethyl]methylcarbamoyl}-3-(4-fluoro-2-methylphenyl)piperazin-1-ylmethyl]cyclohexanecarboxylic acid] |  | 1.86 nM | 14%
8 | Cc1cc(F)ccc1[C@H]1CN(Cc2ccc(CC(=O)O)cc2)CCN1C(=O)N(C)[C@H](C)c1cc(C(F)(F)F)cc(C(F)(F)F)c1 [Example 9, {4-[(S)-4-{[(R)-1-(3,5-Bistrifluoromethylphenyl)ethyl]methylcarbamoyl}-3-(4-fluoro-2-methylphenyl)piperazin-1-ylmethyl]phenyl}acetic acid] |  | 1.55 nM | 38%
9 | Cc1cc(F)ccc1[C@H]1CN(C(=O)N2CCC(CC(=O)O)CC2)CCN1C(=O)N(C)[C@H](C)c1cc(C(F)(F)F)cc(C(F)(F)F)c1 [Example 10, {1-[(S)-4-{[(R)-1-(3,5-Bistrifluoromethylphenyl)ethyl]methylcarbamoyl}-3-(4-fluoro-2-methylphenyl)piperazine-1-carbonyl]piperidin-4-yl}acetic acid] |  | 1.17 nM | 30%
10 | Cc1cc(F)ccc1[C@H]1CN(CC23CC(C(=O)O)(C2)C3)CCN1C(=O)N(C)[C@H](C)c1cc(C(F)(F)F)cc(C(F)(F)F)c1 [Example 11, 3-[(S)-4-{[(R)-1-(3,5-Bistrifluoromethylphenyl)ethyl]methylcarbamoyl}-3-(4-fluoro-2-methylphenyl)piperazin-1-ylmethyl]bicyclo[1.1.1]pentane-1-carboxylic acid] |  | 1.91 nM | 24%
11 | Cc1cc(F)ccc1[C@H]1CN(C2CCC(CC(=O)O)CC2)CC[C@@H]1C(=O)N(C)[C@@H](C)c1cc(C(F)(F)F)cc(C(F)(F)F)c1 (stereo partly drawn) [Example 12, {4-[(3 S,4S)-4-{[(S)-1-(3,5-Bistrifluoromethylphenyl)ethyl]methylcarbamoyl}-3-(4-fluoro-2-methylphenyl)piperidin-1-yl]cyclohexyl}lacetic acid] |  | 0.282 nM | 4.9%
